# In ChEMBL document CHEMBL1275492, “In vitro activity of ceftobiprole against pathogens from two phase 3 clinical trials of complicated skin and skin structure infections” (2008):
# Legend:
# Assay type in all cases: functional
# Proteus vulgaris = test: Antibacterial activity against Proteus vulgaris obtained from complicated skin and skin structure infections by agar dilution method
# Acinetobacter baumannii = test: Antibacterial activity against Acinetobacter baumannii obtained from complicated skin and skin structure infections by agar dilution method
# Citrobacter freundii = test: Antibacterial activity against Citrobacter freundii obtained from complicated skin and skin structure infections by agar dilution method
# Escherichia coli = test: Antibacterial activity against Escherichia coli obtained from complicated skin and skin structure infections by agar dilution method
# Proteus penneri = test: Antibacterial activity against Proteus penneri obtained from complicated skin and skin structure infections by agar dilution method
# Serratia marcescens = test: Antibacterial activity against Serratia marcescens obtained from complicated skin and skin structure infections by agar dilution method
# Pseudomonas aeruginosa = test: Antibacterial activity against Pseudomonas aeruginosa obtained from complicated skin and skin structure infections by agar dilution method
# [1] = tested on: Stenotrophomonas maltophilia; test: Antibacterial activity against Stenotrophomonas maltophilia obtained from complicated skin and skin structure infections by agar dilution method
# Salmonella = test: Antibacterial activity against Salmonella spp. obtained from complicated skin and skin structure infections by agar dilution method
# Providencia stuartii = test: Antibacterial activity against Providencia stuartii obtained from complicated skin and skin structure infections by agar dilution method
# Morganella morganii = test: Antibacterial activity against Morganella morganii obtained from complicated skin and skin structure infections by agar dilution method
# Klebsiella oxytoca = test: Antibacterial activity against Klebsiella oxytoca obtained from complicated skin and skin structure infections by agar dilution method
# Citrobacter braakii = test: Antibacterial activity against Citrobacter braakii obtained from complicated skin and skin structure infections by agar dilution method
# Proteus mirabilis = test: Antibacterial activity against Proteus mirabilis obtained from complicated skin and skin structure infections by agar dilution method
# Pseudomonas fluorescens = test: Antibacterial activity against Pseudomonas fluorescens obtained from complicated skin and skin structure infections by agar dilution method
# Enterobacter amnigenus = test: Antibacterial activity against Enterobacter amnigenus obtained from complicated skin and skin structure infections by agar dilution method; settings: Lelliottia amnigena
# Klebsiella aerogenes = test: Antibacterial activity against Enterobacter aerogenes obtained from complicated skin and skin structure infections by agar dilution method
# Klebsiella pneumoniae = test: Antibacterial activity against Klebsiella pneumoniae obtained from complicated skin and skin structure infections by agar dilution method
# Enterobacter cloacae = test: Antibacterial activity against Enterobacter cloacae obtained from complicated skin and skin structure infections by agar dilution method
Compound,MIC50 (Proteus vulgaris),MIC90 (Proteus vulgaris),MIC50 (Acinetobacter baumannii),MIC90 (Acinetobacter baumannii),MIC50 (Citrobacter freundii),MIC90 (Citrobacter freundii),MIC50 (Escherichia coli),MIC90 (Escherichia coli),MIC50 (Proteus penneri),MIC90 (Proteus penneri),MIC50 (Serratia marcescens),MIC90 (Serratia marcescens),MIC50 (Pseudomonas aeruginosa),MIC90 (Pseudomonas aeruginosa),MIC50 [1],MIC90 [1],MIC50 (Salmonella),MIC90 (Salmonella),MIC50 (Providencia stuartii),MIC90 (Providencia stuartii),also measured
O=C(O)c1cn(C2CC2)c2cc(N3CCNCC3)c(F)cc2c1=O [CIPROFLOXACIN],0.015 µg/mL,> 2 µg/mL,> 2 µg/mL,> 8 µg/mL,0.015 µg/mL,> 2 µg/mL,0.015 µg/mL,1 µg/mL,0.015 µg/mL,> 2 µg/mL,0.015 µg/mL,> 2 µg/mL,1 µg/mL,> 8 µg/mL,> 2 µg/mL,> 8 µg/mL,0.015 µg/mL,> 2 µg/mL,0.015 µg/mL,> 2 µg/mL,MIC50 (Morganella morganii): 0.12 µg/mL; MIC90 (Morganella morganii): > 8 µg/mL; MIC50 (Klebsiella oxytoca): 0.015 µg/mL; MIC90 (Klebsiella oxytoca): > 2 µg/mL; MIC50 (Citrobacter braakii): 0.015 µg/mL; MIC90 (Citrobacter braakii): > 2 µg/mL; MIC50 (Proteus mirabilis): 0.03 µg/mL; MIC90 (Proteus mirabilis): > 2 µg/mL; MIC50 (Pseudomonas fluorescens): > 2 µg/mL; MIC90 (Pseudomonas fluorescens): > 8 µg/mL; MIC50 (Enterobacter amnigenus): 0.015 µg/mL; MIC90 (Enterobacter amnigenus): > 2 µg/mL; MIC50 (Klebsiella aerogenes): 0.015 µg/mL; MIC90 (Klebsiella aerogenes): > 2 µg/mL
GENTAMICIN,,,,,,,,,,,,,4 µg/mL,> 16 µg/mL,,,,,,,
NCC[C@H](O)C(=O)N[C@@H]1C[C@H](N)[C@@H](O[C@H]2O[C@H](CN)[C@@H](O)[C@H](O)[C@H]2O)[C@H](O)[C@H]1O[C@H]1O[C@H](CO)[C@@H](O)[C@H](N)[C@H]1O [AMIKACIN],2 µg/mL,8 µg/mL,16 µg/mL,> 128 µg/mL,2 µg/mL,8 µg/mL,2 µg/mL,4 µg/mL,2 µg/mL,8 µg/mL,2 µg/mL,8 µg/mL,8 µg/mL,64 µg/mL,16 µg/mL,> 128 µg/mL,2 µg/mL,8 µg/mL,2 µg/mL,8 µg/mL,MIC (Klebsiella pneumoniae): 1 µg/mL; MIC50 (Klebsiella pneumoniae): 1 µg/mL; MIC90 (Klebsiella pneumoniae): 64 µg/mL; MIC50 (Morganella morganii): 2 µg/mL; MIC90 (Morganella morganii): 4 µg/mL; MIC50 (Enterobacter cloacae): 2 µg/mL; MIC90 (Enterobacter cloacae): 8 µg/mL; MIC50 (Klebsiella oxytoca): 2 µg/mL; MIC90 (Klebsiella oxytoca): 8 µg/mL; MIC50 (Citrobacter braakii): 2 µg/mL; MIC90 (Citrobacter braakii): 8 µg/mL; MIC50 (Proteus mirabilis): 4 µg/mL; MIC90 (Proteus mirabilis): 16 µg/mL; MIC50 (Pseudomonas fluorescens): 16 µg/mL; MIC90 (Pseudomonas fluorescens): > 128 µg/mL; MIC50 (Enterobacter amnigenus): 2 µg/mL; MIC90 (Enterobacter amnigenus): 8 µg/mL; MIC50 (Klebsiella aerogenes): 2 µg/mL; MIC90 (Klebsiella aerogenes): 8 µg/mL
